In patent US11225480B2, “Malic enzyme inhibitors” (SUN PHARMA ADVANCED RESEARCH COMPANY LTD, priority 2019, dated 2022):

Tests used:
Assay type in all cases: biochemical
[1] = target: T1, human ME3 enzyme (Homo sapiens, UniProt Q16798); experiment: ME3 inhibition assay (diaphorase/resazurin coupled fluorescence); conditions: 10 μM compound concentration; read-out: Malic Enzyme 3 % inhibition (10 μM)
T1 sequence (Q16798 1-604): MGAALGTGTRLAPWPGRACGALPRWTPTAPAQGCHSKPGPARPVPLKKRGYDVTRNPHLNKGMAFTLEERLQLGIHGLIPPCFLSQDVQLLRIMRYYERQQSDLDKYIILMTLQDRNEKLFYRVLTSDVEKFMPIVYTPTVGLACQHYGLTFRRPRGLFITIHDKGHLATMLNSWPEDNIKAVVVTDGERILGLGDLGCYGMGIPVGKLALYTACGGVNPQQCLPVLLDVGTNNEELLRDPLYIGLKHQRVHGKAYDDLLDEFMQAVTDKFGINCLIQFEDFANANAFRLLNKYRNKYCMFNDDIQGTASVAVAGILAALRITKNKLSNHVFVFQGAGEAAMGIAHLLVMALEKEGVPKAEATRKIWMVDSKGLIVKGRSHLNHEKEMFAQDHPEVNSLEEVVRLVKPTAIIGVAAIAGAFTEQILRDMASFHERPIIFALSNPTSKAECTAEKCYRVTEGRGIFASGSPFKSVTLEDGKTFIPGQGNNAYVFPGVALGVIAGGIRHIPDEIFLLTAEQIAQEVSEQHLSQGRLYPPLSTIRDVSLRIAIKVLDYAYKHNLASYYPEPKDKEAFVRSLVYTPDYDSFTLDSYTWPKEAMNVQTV
How it was run: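 Coupled read-out: NADPH made by human ME3 (20 nM stock) drives diaphorase conversion of resazurin (50 μM) to resorufin; buffer 50 mM Tris-HCl pH 7.5, 10 mM MnCl2, 3 mM L-malate.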

[2] = target: human ME2 enzyme (Homo sapiens, UniProt P23368); experiment: ME2 inhibition assay (diaphorase/resazurin coupled fluorescence); conditions: 10 μM compound concentration; read-out: Malic Enzyme 2 % inhibition (10 μM)
human ME2 enzyme, sequence (P23368 19-584): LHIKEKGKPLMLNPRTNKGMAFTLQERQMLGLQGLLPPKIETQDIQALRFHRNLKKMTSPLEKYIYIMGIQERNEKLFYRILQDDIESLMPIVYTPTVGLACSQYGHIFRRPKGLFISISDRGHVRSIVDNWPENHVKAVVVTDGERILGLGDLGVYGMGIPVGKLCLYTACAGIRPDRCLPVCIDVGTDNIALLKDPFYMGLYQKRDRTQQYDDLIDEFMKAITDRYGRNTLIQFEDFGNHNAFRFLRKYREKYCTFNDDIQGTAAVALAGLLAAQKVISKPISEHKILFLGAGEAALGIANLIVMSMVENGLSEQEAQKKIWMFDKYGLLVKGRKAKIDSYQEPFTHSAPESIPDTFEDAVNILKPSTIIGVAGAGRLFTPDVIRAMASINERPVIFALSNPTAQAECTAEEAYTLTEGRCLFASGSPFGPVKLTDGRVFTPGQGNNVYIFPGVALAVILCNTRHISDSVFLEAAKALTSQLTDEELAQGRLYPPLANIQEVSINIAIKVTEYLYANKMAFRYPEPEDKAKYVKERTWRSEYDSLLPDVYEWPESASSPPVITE
Protocol: (§1) ME2 catalyzes the oxidative decarboxylation of malate to pyruvate with conversion of the co-factor β-NAD+ to β-NADH. In the fluorescence assay, a coupled reaction is set up where in an enzyme, Diaphorase, utilizes NADH generated by ME2, to convert the dye resazurin to a fluorescent molecule resorufin. Resorufin has a characteristic fluorescence with excitation/emission at 540/600 nm (SLAS Discov., 2017 April 1:2472555217706649).
The enzyme activity inhibition assay is set up in a 200 μL final reaction volume in a 96-well plate. As per the experimental design, 2 μL of the compounds at 100× the desired concentration (10 μM) in DMSO were added to the respective wells with 178 μL of assay buffer (50 mM Tris-HCl pH 7.5, 10 mM MnCl2, 7 mM L-malate, 50 μM Resazurin and 0.025 mg/ml Diapharose). The 96-well plate was incubated on a plate shaker at room temperature for 15 minutes protected from light. The well contents were gently mixed by adding 10 μL of 60 nM human ME2 enzyme to the wells and the plate was incubated on a shaker at room temperature for 5 minutes protected from light. Suitable ‘enzyme only’ and ‘no enzyme’ controls were included in the experiment. The enzymatic reaction was started by adding 10 μL of 2 mM β-NAD+. The reaction was gently mixed and the plate was initially left on a shaker at room temperature for −7 minutes protected from light. Later, the plate was incubated without shaking at room temperature for 2 hours. At the end of 2 hours, the fluorescence of the wells was measured at excitation 540 nm and emission 600 nm. The % enzyme activity of the compounds is obtained by normalizing the data with enzyme only (100%) and no enzyme controls (0%) using GraphPad Prism software 7.04.

[3] = target: T2, human ME1 enzyme (Homo sapiens, UniProt P48163); experiment: ME1 inhibition assay (diaphorase/resazurin coupled fluorescence); conditions: 10 μM compound concentration; read-out: Malic Enzyme 1 % inhibition (10 μM)
T2 sequence (P48163 1-572): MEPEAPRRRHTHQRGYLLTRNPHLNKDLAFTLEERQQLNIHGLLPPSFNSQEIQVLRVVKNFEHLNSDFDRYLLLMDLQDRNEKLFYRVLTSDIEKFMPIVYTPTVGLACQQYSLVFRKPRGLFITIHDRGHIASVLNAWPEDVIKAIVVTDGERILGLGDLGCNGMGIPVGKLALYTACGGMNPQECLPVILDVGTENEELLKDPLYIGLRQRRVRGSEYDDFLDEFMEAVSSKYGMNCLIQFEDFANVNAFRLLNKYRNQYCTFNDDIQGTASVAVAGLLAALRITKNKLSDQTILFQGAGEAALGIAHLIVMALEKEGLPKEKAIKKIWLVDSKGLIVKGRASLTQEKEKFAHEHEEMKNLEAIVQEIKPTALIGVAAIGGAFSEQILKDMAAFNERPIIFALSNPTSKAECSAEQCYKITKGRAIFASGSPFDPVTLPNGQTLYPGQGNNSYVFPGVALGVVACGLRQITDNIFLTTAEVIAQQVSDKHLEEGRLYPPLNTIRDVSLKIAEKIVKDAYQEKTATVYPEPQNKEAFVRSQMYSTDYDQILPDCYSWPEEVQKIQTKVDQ
Protocol: as §1, with “ME1” for “ME2”, “β-NADP+” for “β-NAD+”, “β-NADPH.” for “β-NADH.”, “NADPH” for “NADH”, “ME1,” for “ME2,”
The enzyme activity inhibition assay is set up in a 200 μL final reaction volume in a 96-well plate. As per the experimental design, 2 μL of the compounds at 100× the desired concentration (10 μM) in DMSO were added to the respective wells with 178 μL of assay buffer (50 mM Tris-HCl pH 7.5, 10 mM MnCl2, 2 mM L-malate, 10 μM Resazurin and 0.01 mg/ml Diapharose). The 96-well plate was incubated on a plate shaker at room temperature for 15 minutes protected from light. The well contents were gently mixed by adding 10 μL of 20 nM human ME1 enzyme to the wells and the plate was incubated on a shaker at room temperature for 5 minutes protected from light. Suitable ‘enzyme only’ and ‘no enzyme’ controls were included in the experiment. The enzymatic reaction was started by adding 10 μL of 0.3 mM D-NADP+. The reaction was gently mixed and the plate was initially left on a shaker at room temperature for −7 minutes protected from light. Later, the plate was incubated without shaking at room temperature for 2 hours. At the end of 2 hours, the fluorescence of the wells was measured at excitation 540 nm and emission 600 nm. The % enzyme activity of the compounds is obtained by normalizing the data with enzyme only (100%) and no enzyme controls (0%) using GraphPad Prism software 7.04.

Structure (SMILES)	inhibition at 10 µM [1]	inhibition at 10 µM [2]	inhibition at 10 µM [3]
O=C(CCc1ccccc1C(F)(F)F)N1CCN(c2ccc(O)cn2)CC1 [I.128, 1-[4-(5-Hydroxy-pyridin-2-yl)-piperazin-1-yl]-3-(2-trifluoro-methylphenyl)-propan-1-one]	> 90%	> 90%	> 90%
O=C(CCc1cccs1)N1CCN(c2ccc(O)cn2)CC1 [I.116, 1-[4-(5-Hydroxy-pyridin-2-yl)-piperazin-1-yl]-3-thiophen-2-yl-propan-1-one]	> 90%	> 90%	> 90%
COc1ccc(C(=CC(=O)N2CCN(c3ccc(O)cn3)CC2)c2ccc(OC)cc2)cc1 [I.84, 1-[4-(5-Hydroxy-2-pyridyl)-piperazin-1-yl]-3,3-bis(4-methoxy-phenyl)-prop-2-en-1-one]	> 90%	70 to 89%	70 to 89%
O=C(C1CC(c2ccccc2)C1)N1CCN(c2ccc(O)cn2)CC1 (stereo not drawn) [I.134, [4-(5-Hydroxy-pyridin-2-yl)-piperazin-1-yl]-(3-phenyl-cyclobutyl)-methanone]	> 90%	> 90%	> 90%
O=C(CC(c1ccccc1)c1ccccc1)N1CCN(c2ccc(O)cn2)CC1 [I.75, 1-[4-(5-Hydroxy-2-pyridyl)-piperazin-1-yl]-3,3-diphenyl-propan-1-one]	> 90%	70 to 89%	> 90%
O=C(C=C1c2ccccc2-c2ccccc21)N1CCN(c2ccc(O)cn2)CC1 [I.60, 2-Fluoren-9-ylidene-1-[4-(5-hydroxy-2-pyridyl)-piperazin-1-yl]ethanone]	> 90%	70 to 89%	70 to 89%
O=C(c1c[nH]c2ccc(F)cc12)N1CCN(c2ccc(O)cn2)CC1 [I.155, (5-Fluoro-1H-indol-3-yl)-[4-(5-hydroxy-pyridin-2-yl)-piperazin-1-yl]-methanone]	> 90%	> 90%	> 90%
O=C(c1ccc(-c2ccccc2)s1)N1CCN(c2ccc(O)cn2)CC1 [I.123, [4-(5-Hydroxy-pyridin-2-yl)-piperazin-1-yl]-(5-phenyl-thiophen-2-yl)-methanone]	> 90%	70 to 89%	70 to 89%
O=C(CCc1c2ccccc2cc2ccccc12)N1CCN(c2ccc(O)cc2)CC1 [I.53, 3-Anthracen-9-yl-1-[4-(4-hydroxy-phenyl)-piperazin-1-yl]-propan-1-one]	> 90%	> 90%	> 90%
O=C(c1cc2cc(F)ccc2[nH]1)N1CCN(c2ccc(O)cn2)CC1 [I.88]	> 90%	70 to 89%	> 90%
O=C(c1cc2ccccc2oc1=O)N1CCN(c2ccc(O)cn2)CC1 [I.73, 3-[4-(5-Hydroxy-2-pyridyl)-piperazine-1-carbonyl]-chromen-2-one]	> 90%	70 to 89%	70 to 89%
O=C(C(c1ccc(Cl)cc1)c1ccc(Cl)cc1)N1CCN(c2ccc(O)cn2)CC1 [I.58, 2,2-bis(4-Chloro-phenyl)-1-[4-(5-hydroxy-2-pyridyl)-piperazin-1-yl]ethanone]	> 90%	50 to 69%	70 to 89%
O=C(O)CCCC(=O)N1CCN(c2ccc(O)cn2)CC1 [I.70, 5-[4-(5-hydroxy-2-pyridyl)piperazin-1-yl]-5-oxo-pentanoic acid]	> 90%	70 to 89%	70 to 89%
O=C(Cc1ccccc1Oc1ccccc1)N1CCN(c2ccc(O)cc2)CC1 [I.49, 1-[4-(4-hydroxyphenyl)piperazin-1-yl]-2-(2-phenoxyphenyl)ethanone]	> 90%	> 90%	> 90%
Cc1cc(N2CCN(C(=O)Cc3ccccc3)CC2)ccc1O [I.52, 1-[4-(4-Hydroxy-3-methyl-phenyl)-piperazin-1-yl]-2-phenyl-ethanone]	> 90%	> 90%	> 90%
O=C(CSc1ccccc1Br)N1CCN(c2ccc(O)cc2)CC1 [I.151, 2-(2-bromo-phenylsulfanyl)-1-[4-(4-hydroxy-phenyl)-piperazin-1-yl]-ethanone]	> 90%	> 90%	> 90%
O=C(c1cn(CC2CC2)c2ccccc2c1=O)N1CCN(c2ccc(O)cn2)CC1 [I.59, 1-(Cyclo-propyl-methyl)-3-[4-(5-hydroxy-2-pyridyl)-piperazine-1-carbonyl]-quinolin-4-one]	> 90%	70 to 89%	70 to 89%
O=C(Cc1ccccc1)N1CCN(c2ccc(O)cc2F)CC1 [I.11, 1-[4-(2-Fluoro-4-hydroxy-phenyl)-piperazin-1-yl]-2-phenyl-ethanone]	> 90%	70 to 89%	> 90%
O=C(C1CCCc2ccccc21)N1CCN(c2ccc(O)cn2)CC1 (stereo not drawn) [I.132, [4-(5-Hydroxy-pyridin-2-yl)-piperazin-1-yl]-(1,2,3,4-tetrahydro-naphthalen-1-yl)-methanone]	> 90%	> 90%	70 to 89%
O=C(CCc1ccc(F)cc1F)N1CCN(c2ccc(O)cn2)CC1 [I.152, 3-(2,4-Difluoro-phenyl)-1-[4-(5-hydroxy-pyridin-2-yl)-piperazin-1-yl]-propan-1-one]	> 90%	> 90%	> 90%
